Our source for the IC50 and viability values is ChEMBL document CHEMBL3286222, “Synthesis and antiproliferative studies of 5-aryl-2-(3-thienylamino)-1,3,4-thiadiazoles” (Bioorg Med Chem Lett, 2014).

For orientation: IC50 means the concentration needed to halve the response being measured.

Structures are written as SMILES.

The test system of one assay is MCF7. Briefly: Cytotoxicity against human MCF7 cells assessed as growth inhibition after 72 hrs by MTT colorimetric assay. In kind it is functional, cell-based. To be noted: MCF7, 72 h. A general note: Tetrazolium dyes change colour on reduction, which living cells bring about.
A short description of assay [1]: Cytotoxicity against human U373 cells assessed as growth inhibition after 72 hrs by MTT colorimetric assay. In kind it is functional, cell-based, U-373MG ATCC. The settings on record: U373 MG.
The next assay deals with SK-MEL-28. Briefly: Cytotoxicity against human SK-MEL-28 cells assessed as growth inhibition after 72 hrs by MTT colorimetric assay. The assay is classed as functional, cell-based. The settings on record: SK-MEL-28, 72 h.
Assay [2] in a line: Cytotoxicity against human Hs683 cells assessed as cell viability at 10 uM after 72 hrs by MTT colorimetric assay. In kind it is functional. To be noted: Hs 683, 72 h, read-out: Activity.
A further assay deals with A549. Briefly: Cytotoxicity against human A549 cells assessed as cell viability at 5 uM after 72 hrs by MTT colorimetric assay. The assay is classed as functional. To be noted: A549, 72 h, read-out: Activity.
Assay [3] can be described thus: Cytotoxicity against mouse B16F10 cells assessed as cell viability at 1 uM after 72 hrs by MTT colorimetric assay. In kind it is functional. To be noted: B16-F10, 72 h, read-out: Activity.

For the compound `COc1ccc(-c2cc(Nc3nnc(-c4ccc(C)cc4)s3)cs2)cc1`, the IC50 (with MCF7; in assay [1]; in the assay with SK-MEL-28) was greater than 100 µM each time. Also, in assay [2], the viability at 10 µM is less than 50%. The viability at 5 µM in the assay on A549 was less than 50%. Besides, in assay [3], the viability at 1 µM is less than 50%.
